Target: T1, Papain (Carica papaya, UniProt P00784)
T1 sequence (P00784 whole entry): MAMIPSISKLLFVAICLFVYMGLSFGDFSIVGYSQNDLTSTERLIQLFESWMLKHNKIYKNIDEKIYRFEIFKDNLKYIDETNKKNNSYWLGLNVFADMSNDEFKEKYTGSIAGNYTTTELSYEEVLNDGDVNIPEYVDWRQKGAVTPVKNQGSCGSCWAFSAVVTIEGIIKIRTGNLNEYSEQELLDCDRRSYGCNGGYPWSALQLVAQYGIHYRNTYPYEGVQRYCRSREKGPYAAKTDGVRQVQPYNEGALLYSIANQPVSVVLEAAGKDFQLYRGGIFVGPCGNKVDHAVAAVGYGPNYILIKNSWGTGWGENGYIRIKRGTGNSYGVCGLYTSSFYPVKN
Assay: Inhibitory activity measured against papain.
Conditions: read-out: Ki app

## CC(C)C[C@H](NC(=O)OCc1ccccc1)C(=O)NCC(=O)CNC(=O)[C@H](CC(C)C)NC(=O)OCc1ccccc1
  Ki: 10 µM

— ChEMBL document CHEMBL1131175, “Use of papain as a model for the structure-based design of cathepsin K inhibitors: crystal structures of two papain-inhibitor complexes demonstrate binding to S'-subsites” (J Med Chem, 1998)
